Reference: patent US8835476B2, “Synthesis of novel antimicrobials” (priority 2005, dated 2014)
≈ marks a conversion by molar mass, not a printed value. Like-named read-outs stand apart in the source and are kept apart here.

Assays:
Format in all cases: cell-based
P. rettgeri CAP = assay: Broth microdilution MIC, reference strains; conditions: Providencia rettgeri; P. rettgeri (CAP in Table 1); read-out: MIC (growth inhibition, microdilution method)
Source text: (§1) All clinical isolates tested were from The North American Urinary Tract Infection Collaborative Alliance (NAUTICA) which is a UTI surveillance study involving 40 medical centres (30 from the US and 10 from Canada). Each centre submitted up to 50 consecutive outpatient midstream urine isolates. All isolates were deemed significant urinary tract pathogens by individual laboratory criteria and identified to the species level by each laboratory's existing protocol. Isolates were transported to the coordinating laboratory (Health Sciences Centre, Winnipeg, Canada) on charcoal swabs. Only one isolate per patient was accepted. Upon receipt, isolates were cultured by the coordinating laboratory, stocked in skim milk, and stored at −80° C. awaiting reference antibiotic susceptibility testing. Elementary demographic information was also compiled for each isolate. Isolates were selected randomly from the above pool to represent 18 different species of Enterobacteriaceae and non-Enterobacteriaceae. An average of 5 strains of each species were tested for a total of 93 organisms. In addition, 23 reference (ATCC) [both gram negative and gram positive] strains were tested.
(§2) Susceptibilities to the compounds were determined using the National Committee for Clinical Laboratory Standards (NCCLS) M7-A6 broth microdilution method. […] DMSO controls were incorporated into the panel to mimic the quantity of DMSO used in dissolving some of the compounds at the higher concentrations. Each final panel well volume was 100 μl with a bacterial inoculum of 5×10^5 colony forming units (CFU)/ml. Panels were read following 16 to 20 hours of incubation at 35° C. in ambient air. The minimum inhibitory concentration (MIC) was defined as the lowest concentration of antimicrobial inhibiting visible growth. Quality control (QC) was performed using four ATCC QC organisms that were run with every batch set up to insure reproducibility.

[1] = tested on: S. maltophilia ATCC 13637; assay: Broth microdilution MIC, ATCC strains; conditions: Stenotrophomonas maltophilia, ATCC13637; S. maltophilia ATCC 13637; read-out: MIC (growth inhibition, microdilution method)
Source text: as §1, §2

E. aerogenes ATCC 13048 = assay: Broth microdilution MIC, ATCC strains; conditions: Klebsiella aerogenes, ATCC13048; E. aerogenes ATCC 13048; read-out: MIC (growth inhibition, microdilution method)
Source text: as §1, §2

[2] = tested on: Ps. aeruginosa ATCC 27853; assay: Broth microdilution MIC, ATCC strains; conditions: Pseudomonas aeruginosa, ATCC27853; Ps. aeruginosa ATCC 27853; read-out: MIC (growth inhibition, microdilution method)
Source text: as §1, §2

S. aureus ATCC 29213 = assay: Broth microdilution MIC, ATCC strains; conditions: for MIC: Staphylococcus aureus, ATCC29213, S. aureus ATCC 29213, read-out: MIC (growth inhibition, microdilution method)
Source text: as §1, §2

Pr. stuartii ATCC 33672 = assay: Broth microdilution MIC, ATCC strains; conditions: Providencia stuartii, ATCC33672; Pr. stuartii ATCC 33672; read-out: MIC (growth inhibition, microdilution method)
Source text: as §1, §2

[3] = tested on: S. epidermidis ATCC 14990; assay: Broth microdilution MIC, ATCC strains; conditions: Staphylococcus epidermidis, ATCC14990; S. epidermidis ATCC 14990; read-out: MIC (growth inhibition, microdilution method)
Source text: as §1, §2

MRSA ATCC 33591 = assay: Broth microdilution MIC, ATCC strains; conditions: Staphylococcus aureus; MRSA ATCC 33591; read-out: MIC (growth inhibition, microdilution method)
Source text: as §1, §2

S. marcescens ATCC 8100 = assay: Broth microdilution MIC, ATCC strains; conditions: Serratia marcescens, ATCC8100; S. marcescens ATCC 8100; read-out: MIC (growth inhibition, microdilution method)
Source text: as §1, §2

K. oxytoca ATCC 49131 = assay: Broth microdilution MIC, ATCC strains; conditions: Klebsiella oxytoca, ATCC49131; K. oxytoca ATCC 49131; read-out: MIC (growth inhibition, microdilution method)
Source text: as §1, §2

B. cepacia ATCC 25416 = assay: Broth microdilution MIC, ATCC strains; conditions: Burkholderia cepacia, ATCC25416; B. cepacia ATCC 25416; read-out: MIC (growth inhibition, microdilution method)
Source text: as §1, §2

E. faecalis ATCC 29212 = assay: Broth microdilution MIC, ATCC strains; conditions: Enterococcus faecalis, read-out: MIC (growth inhibition, microdilution method)
Source text: as §1, §2

P. mirabilis ATCC 29245 = assay: Broth microdilution MIC, ATCC strains; conditions: Proteus mirabilis, ATCC29245; P. mirabilis ATCC 29245; read-out: MIC (growth inhibition, microdilution method)
Source text: as §1, §2

S. warneri ATCC 27836 = assay: Broth microdilution MIC, ATCC strains; conditions: Staphylococcus warneri, ATCC27836; S. warneri ATCC 27836; read-out: MIC (growth inhibition, microdilution method)
Source text: as §1, §2

[4] = tested on: S. saprophyticus ATCC 15305; assay: Broth microdilution MIC, ATCC strains; conditions: Staphylococcus saprophyticus, ATCC15305; S. saprophyticus ATCC 15305; read-out: MIC (growth inhibition, microdilution method)
Source text: as §1, §2

S. simulans ATCC 27848 = assay: Broth microdilution MIC, ATCC strains; conditions: Staphylococcus simulans, ATCC27848, read-out: MIC (growth inhibition, microdilution method)
Source text: as §1, §2

E. faecium ATCC 35667 = assay: Broth microdilution MIC, ATCC strains; conditions: Enterococcus faecium, ATCC35667, read-out: MIC (growth inhibition, microdilution method)
Source text: as §1, §2

K. pneumoniae ATCC 13883 = assay: Broth microdilution MIC, ATCC strains; conditions: Klebsiella pneumoniae, ATCC13883; K. pneumoniae ATCC 13883; read-out: MIC (growth inhibition, microdilution method)
Source text: as §1, §2

P. vulgaris ATCC 49132 = assay: Broth microdilution MIC, ATCC strains; conditions: Proteus vulgaris, ATCC49132; P. vulgaris ATCC 49132; read-out: MIC (growth inhibition, microdilution method)
Source text: as §1, §2

E. coli ATCC 25922 = assay: Broth microdilution MIC, ATCC strains; conditions: for MIC: Escherichia coli, ATCC25922, E. coli ATCC 25922, read-out: MIC (growth inhibition, microdilution method)
Source text: as §1, §2

E. cloacae ATCC 23355 = assay: Broth microdilution MIC, ATCC strains; conditions: Enterobacter cloacae, ATCC23355; E. cloacae ATCC 23355; read-out: MIC (growth inhibition, microdilution method)
Source text: as §1, §2

A. anitratus ATCC 19606 = assay: Broth microdilution MIC, ATCC strains; conditions: Acinetobacter calcoaceticus, ATCC19606; A. anitratus ATCC 19606; read-out: MIC (growth inhibition, microdilution method)
Source text: as §1, §2

[5] = ATCC29212, E. faecalis ATCC 29212
[6] = ATCC29212, E. faecalis, ATCC number not given

O=C(O)c1cc(-c2nn[nH]n2)cs1 [DNM-116, 4-(2H-Tetrazol-5-yl)-thiophene-2-carboxylic acid]
MIC (P. rettgeri CAP): 32 µg/mL (≈ 163 µM)
MIC [1]: 16 µg/mL (≈ 81.6 µM)
MIC (E. aerogenes ATCC 13048): 16 µg/mL (≈ 81.6 µM)
MIC [2]: 16 µg/mL (≈ 81.6 µM)
MIC (growth inhibition, microdilution method) (S. aureus ATCC 29213; S. aureus ATCC 29213): >32 µg/mL
MIC (S. aureus ATCC 29213): 32 µg/mL (≈ 163 µM)
MIC (Pr. stuartii ATCC 33672): 32 µg/mL (≈ 163 µM)
MIC [3]: 16 µg/mL (≈ 81.6 µM)
MIC (MRSA ATCC 33591): > 32 µg/mL
MIC (S. marcescens ATCC 8100): 16 µg/mL (≈ 81.6 µM)
MIC (K. oxytoca ATCC 49131): 16 µg/mL (≈ 81.6 µM)
MIC (B. cepacia ATCC 25416): 16 µg/mL (≈ 81.6 µM)
MIC (E. faecalis ATCC 29212; [5]): 8 µg/mL (≈ 40.8 µM)
MIC (E. faecalis ATCC 29212; [6]): 8 µg/mL (≈ 40.8 µM)
MIC (P. mirabilis ATCC 29245): 32 µg/mL (≈ 163 µM)
MIC (S. warneri ATCC 27836): 32 µg/mL (≈ 163 µM)
MIC [4]: 16 µg/mL (≈ 81.6 µM)
MIC (S. simulans ATCC 27848): > 32 µg/mL
MIC (E. faecium ATCC 35667): 8 µg/mL (≈ 40.8 µM)
MIC (K. pneumoniae ATCC 13883): 16 µg/mL (≈ 81.6 µM)
MIC (P. vulgaris ATCC 49132): 32 µg/mL (≈ 163 µM)
MIC (growth inhibition, microdilution method) (E. coli ATCC 25922; E. coli ATCC 25922): 8 µg/mL (≈ 40.8 µM)
MIC (E. coli ATCC 25922): 16 µg/mL (≈ 81.6 µM)
MIC (E. cloacae ATCC 23355): 16 µg/mL (≈ 81.6 µM)
MIC (A. anitratus ATCC 19606): 16 µg/mL (≈ 81.6 µM)

Cn1nnnc1-c1cc(-c2ccc(F)cc2)sc1-c1ccc(F)cc1 [DNM-133, 5-(2,5-Bis(4-fluorophenyl)thiophen-3-yl)-1-methyl-1H-tetrazole]
MIC (P. rettgeri CAP): > 16 µg/mL
MIC [1]: > 16 µg/mL
MIC (E. aerogenes ATCC 13048): > 16 µg/mL
MIC [2]: > 16 µg/mL
MIC (S. aureus ATCC 29213): > 16 µg/mL
MIC (Pr. stuartii ATCC 33672): > 16 µg/mL
MIC [3]: > 16 µg/mL
MIC (MRSA ATCC 33591): > 16 µg/mL
MIC (S. marcescens ATCC 8100): > 16 µg/mL
MIC (K. oxytoca ATCC 49131): > 16 µg/mL
MIC (B. cepacia ATCC 25416): > 16 µg/mL
MIC (E. faecalis ATCC 29212; [5]): > 16 µg/mL
MIC (E. faecalis ATCC 29212; [6]): > 16 µg/mL
MIC (P. mirabilis ATCC 29245): > 16 µg/mL
MIC (S. warneri ATCC 27836): > 16 µg/mL
MIC [4]: > 16 µg/mL
MIC (S. simulans ATCC 27848): > 16 µg/mL
MIC (E. faecium ATCC 35667): > 16 µg/mL
MIC (K. pneumoniae ATCC 13883): > 16 µg/mL
MIC (P. vulgaris ATCC 49132): > 16 µg/mL
MIC (E. coli ATCC 25922): > 16 µg/mL
MIC (E. cloacae ATCC 23355): > 16 µg/mL
MIC (A. anitratus ATCC 19606): > 16 µg/mL

Cn1nnc(-c2cc(-c3ccc(F)cc3)sc2C(=O)O)n1 [DNM-142, 5-(4-Fluoro-phenyl)-3-(2-methyl-2H-tetrazol-5-yl)-thiophene-2-carboxylic acid]
MIC (P. rettgeri CAP): > 16 µg/mL
MIC [1]: > 16 µg/mL
MIC (E. aerogenes ATCC 13048): > 16 µg/mL
MIC [2]: > 16 µg/mL
MIC (S. aureus ATCC 29213): > 16 µg/mL
MIC (Pr. stuartii ATCC 33672): > 16 µg/mL
MIC [3]: > 16 µg/mL
MIC (MRSA ATCC 33591): > 16 µg/mL
MIC (S. marcescens ATCC 8100): > 16 µg/mL
MIC (K. oxytoca ATCC 49131): > 16 µg/mL
MIC (B. cepacia ATCC 25416): > 16 µg/mL
MIC (E. faecalis ATCC 29212; [5]): > 16 µg/mL
MIC (E. faecalis ATCC 29212; [6]): > 16 µg/mL
MIC (P. mirabilis ATCC 29245): > 16 µg/mL
MIC (S. warneri ATCC 27836): > 16 µg/mL
MIC [4]: > 16 µg/mL
MIC (S. simulans ATCC 27848): > 16 µg/mL
MIC (E. faecium ATCC 35667): > 16 µg/mL
MIC (K. pneumoniae ATCC 13883): > 16 µg/mL
MIC (P. vulgaris ATCC 49132): > 16 µg/mL
MIC (E. coli ATCC 25922): > 16 µg/mL
MIC (E. cloacae ATCC 23355): > 16 µg/mL
MIC (A. anitratus ATCC 19606): > 16 µg/mL
